Experimental data taken from patent US20110182860A1 (priority 2009, published 2011).
Marks after values point to notes of the source that are not given here.

System: sheath blight caused by Rhizoctonia solani
Assay: Rice sheath blight field experiment (Lujiang county of Anhui province)
Type: in vivo
Text: Rice the most important crop in China, and the sheath blight caused by Rhizoctonia solani is one of the most serious diseases in rice.

OCC1=C[C@@H](N[C@H]2C[C@H](CO)[C@@H](O[C@H]3O[C@@H](CO)[C@H](O)[C@@H](O)[C@@H]3O)[C@H](O)[C@H]2O)[C@H](O)[C@@H](O)[C@@H]1O [Jinggangmycin (20%), Jinggangmycin]
Control efficacy: 69.81% | Disease severity, Means ± S.D: 26.51 ± 0.91^b % | Disease severity, I (replicate I): 27.43% | Disease severity, II (replicate II): 26.52% | Disease severity, III (replicate III): 25.60%
